Where “and” joins values, the source holds several entries; their conditions need not be identical. Equal entries are not always repeated.
Tests used:
CB1 (rCB1) = CB1 (rCB1) (Rattus norvegicus, UniProt P20272); test: Radioligand competition binding, [3H]-CP-55,940, rat brain membranes
hCB1 = hCB1 (Homo sapiens, UniProt P21554); test: bioSensAll ebBRET signaling profiling, hCB1; type: cell-based; set-up: host or cells: HEK293SL cells, transient PEI transfection; details: for Gi1 hCB1 response: Gi1 biosensor; for Gi1 hCB1 / GoB hCB1: single replicate values, FigS6a
Chain of hCB1 (P21554 whole entry): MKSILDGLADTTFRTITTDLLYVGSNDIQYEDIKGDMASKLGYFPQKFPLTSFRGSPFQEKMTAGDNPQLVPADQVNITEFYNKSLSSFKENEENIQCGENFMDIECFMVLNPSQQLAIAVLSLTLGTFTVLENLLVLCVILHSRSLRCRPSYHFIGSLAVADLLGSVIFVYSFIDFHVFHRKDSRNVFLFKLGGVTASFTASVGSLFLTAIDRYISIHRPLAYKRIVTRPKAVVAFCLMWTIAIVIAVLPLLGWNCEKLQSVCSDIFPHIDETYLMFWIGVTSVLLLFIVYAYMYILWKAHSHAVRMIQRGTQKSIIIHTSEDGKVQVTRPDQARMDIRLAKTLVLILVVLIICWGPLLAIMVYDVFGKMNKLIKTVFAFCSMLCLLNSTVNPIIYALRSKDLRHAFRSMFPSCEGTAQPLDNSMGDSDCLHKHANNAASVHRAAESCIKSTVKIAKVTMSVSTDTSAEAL

Chain of CB1 (rCB1) (P20272 whole entry): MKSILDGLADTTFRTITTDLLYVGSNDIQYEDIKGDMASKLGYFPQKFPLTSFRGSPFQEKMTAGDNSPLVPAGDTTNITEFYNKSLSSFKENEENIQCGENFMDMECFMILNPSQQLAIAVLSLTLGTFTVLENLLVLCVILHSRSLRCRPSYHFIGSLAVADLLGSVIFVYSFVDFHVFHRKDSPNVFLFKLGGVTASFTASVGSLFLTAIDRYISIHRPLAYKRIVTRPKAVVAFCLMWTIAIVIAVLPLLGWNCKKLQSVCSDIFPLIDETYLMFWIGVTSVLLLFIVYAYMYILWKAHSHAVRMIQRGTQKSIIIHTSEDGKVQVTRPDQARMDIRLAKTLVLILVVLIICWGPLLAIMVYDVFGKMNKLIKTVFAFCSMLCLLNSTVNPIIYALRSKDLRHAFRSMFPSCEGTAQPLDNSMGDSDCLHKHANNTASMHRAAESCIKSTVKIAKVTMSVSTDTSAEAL

## COC(=O)[C@@H]1[C@@H]2CCC[C@@H]2CN1C(=O)c1cc(C)n(-c2cccc(Cl)c2)n1 (racemic) [‘10010]
CB1 (rCB1); rCB1
  pKi [95% CI]: 5.9 [5.8 – 6.0]
CB1 (rCB1); read-out: Ki [95% CI], rCB1, [3H]-CP-55,940
  Ki: 1200 nM
hCB1; Log [Compound] (M) -4.22186
  Gi1 hCB1 response: 123.556
  Gi1 hCB1: 75.9694
  GoB hCB1: 69.5491
hCB1; Log [Compound] (M) -4.63927
  Gi1 hCB1 response: 104.286
  Gi1 hCB1: 67.922
  GoB hCB1: 64.6397
hCB1; Log [Compound] (M) -5.05788
  Gi1 hCB1 response: 90.0738
  Gi1 hCB1: 66.8428
  GoB hCB1: 63.4708
hCB1; Log [Compound] (M) -5.47381
  Gi1 hCB1 response: 84.2546
  Gi1 hCB1: 60.337
  GoB hCB1: 61.9062
hCB1; Log [Compound] (M) -5.89285
  Gi1 hCB1 response: 64.3799
  Gi1 hCB1: 45.2596
  GoB hCB1: 36.262
hCB1; Log [Compound] (M) -6.31878
  Gi1 hCB1 response: 42.6475
  Gi1 hCB1: 29.1955
  GoB hCB1: 27.8098
hCB1; Log [Compound] (M) -6.72585
  Gi1 hCB1 response: 30.3601
  Gi1 hCB1: 16.0606
  GoB hCB1: 11.4989
hCB1; Log [Compound] (M) -7.14267
  Gi1 hCB1 response: 11.5597
  Gi1 hCB1: 6.117
  GoB hCB1: 3.514
hCB1; Log [Compound] (M) -7.55284
  Gi1 hCB1 response: 0.9285
  Gi1 hCB1: 3.804
  GoB hCB1: 2.9568
hCB1; Log [Compound] (M) -8
  Gi1 hCB1 response: 10.9106
  Gi1 hCB1: 3.373
  GoB hCB1: 0.9427
hCB1; Log [Compound] (M) -8.22186
  Gi1 hCB1 response: -8.695
  Gi1 hCB1: 2.679
  GoB hCB1: -4.812
hCB1; Log [Compound] (M) -8.39794
  Gi1 hCB1 response: 0.6152
  Gi1 hCB1: 2.664
  GoB hCB1: -1.197
hCB1; Log [Compound] (M) -8.68787
  Gi1 hCB1 response: -2.362
  Gi1 hCB1: 1.0911
  GoB hCB1: -4.812
hCB1; Log [Compound] (M) -9.61989
  Gi1 hCB1 response: -10.5755
hCB1; Log [Compound] (M) -10.0969
  Gi1 hCB1 response: -9.255
hCB1; Log [Compound] (M) -10.5529
  Gi1 hCB1 response: -7.5988
hCB1; Log [Compound] (M) -11.0177
  Gi1 hCB1 response: -15.9247
hCB1; Log [Compound] (M) -11.4949
  Gi1 hCB1 response: -7.532
hCB1; Log [Compound] (M) -11.9208
  Gi1 hCB1 response: -15.2309
hCB1; Log [Compound] (M) -12.3979
  Gi1 hCB1 response: -21.4305
hCB1; Log [Compound] (M) -12.8861
  Gi1 hCB1 response: 1.8014
hCB1; Log [Compound] (M) -13, individual replicate values
  Gi1 hCB1 response: -0.8396 and -0.9068
hCB1; Log [Compound] (M) -9.15521
  Gi1 hCB1: 1.8
  GoB hCB1: -5.028
